The text below walks through data of patent publication US20240299558A1, “PROTEOLYSIS TARGETING CHIMERAS AND POLYPHARMACOLOGICAL AGENTS TARGETING BCL-2, AND METHODS OF USE THEREOF” (University of Maryland, Baltimore, priority 2021, published 2024).

Test [1] has as its system MOLM14 AML cells. Nature of the test: Luc-labelled MOLM14 AML xenograft pilot experiment in NRG mice. The settings on record: two 5d PO treatment cycles (d1-5, d21-25), imaging d7, d14, d21, 5 mice/group.
Procedure: Statistical analyses are conducted using GraphPad software. AML burden is quantified using log transformed ratio of luminescence at d7/14/21 vs do for each mouse (fold-change); groups are compared using the appropriate parametric (ANOVA; t-test, etc) or non-parametric alternative as necessary (Wilcoxon rank sum, Kruskal-Wallis). For time-to-event endpoints, Kaplan-Meier survival of groups are compared using the log-rank test. p<0.05 is considered statistically different.
On d0, after Xenogen quantification of baseline total body luminescence (AML burden), groups of 5 AML-bearing mice were treated on days 1-5, per previously established MTD PO×5d schedule, with VEN (150 mg/kg/d PO×5), as monotherapy or co-administered with SOR (30 mg/kg/d PO×5), ART (50 mg/kg/d PO×5), and/or ASP (200 IU/kg IP single dose). A second identical drug cycle was administered on d21-25. On d7, d14 and d21, each mouse was Xenogen imaged for total body luminescence, fold-change AML burden from do was calculated for each mouse, and mean (+/−SD) fold-change for each experimental group plotted.
In test [2] the target is BCL-2^1-211 (Homo sapiens, UniProt P10415). As to the kind of experiment: Fluorescence polarization competition assay (FPCA), FITC-Bak competed off BCL-2. It counts as binding. As for the experimental part:
Fluorescence polarization assays were performed in 96 well polypropylene F-bottom black microplates (Greiner Bio-One) with a final volume of 100 μL. […] The changes in the fluorescence polarization were then measured using a BMG PHERAstar FS multimode microplate reader equipped with two PMTs for simultaneous measurements of both the perpendicular and parallel fluorescence emission at a 485 nm excitation and 520 nm emission filter.
The fluorescence polarization competition assays were setup using a Biomek FXP Automated Liquid Handling System. […] The IC50 values were then converted to Ki values using an equation derived by Nikolovska-Coleska et al. All inhibitors were tested in triplicate.
On the technique in general: In fluorescence polarisation assays a small probe gives low polarisation when free and higher when bound to something large.

Sequence of BCL-2^1-211 (P10415 1-211): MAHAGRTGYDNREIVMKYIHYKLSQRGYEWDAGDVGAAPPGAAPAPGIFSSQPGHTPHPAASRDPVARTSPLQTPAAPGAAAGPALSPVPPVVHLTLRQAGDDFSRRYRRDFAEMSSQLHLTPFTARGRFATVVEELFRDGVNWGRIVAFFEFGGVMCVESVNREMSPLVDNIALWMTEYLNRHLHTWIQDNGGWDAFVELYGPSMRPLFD

For the molecule PEGylated L-asparaginase, in test [1], the “AML burden over time (fold-change total body luminescence) vs vehicle” value is recorded as “minimal activity”. For `CC1(C)CCC(CN2CCN(c3ccc(C(=O)NS(=O)(=O)c4ccc(NCCOCCOCCNC(=O)C(c5ccccc5)c5ccccc5)c([N+](=O)[O-])c4)c(Oc4cnc5[nH]ccc5c4)c3)CC2)=C(c2ccc(Cl)cc2)C1` [CG-2-132], the IC50 (commonly the concentration that gives 50% inhibition) in test [2] was < 20 nM. Still for that read-out and setting: the result for `CC1(C)CCC(CN2CCN(c3ccc(C(=O)NS(=O)(=O)c4ccc(NCCNC(=O)CC56CC7CC(CC(C7)C5)C6)c([N+](=O)[O-])c4)c(Oc4cnc5[nH]ccc5c4)c3)CC2)=C(c2ccc(Cl)cc2)C1` [SF-7-330] reads < 20 nM. With `CNC(=O)c1cc(Oc2ccc(NC(=O)Nc3ccc(Cl)c(C(F)(F)F)c3)cc2)ccn1` [Sorafenib], the “AML burden over time (fold-change total body luminescence) vs vehicle” value in test [1] was “reduced AML burden only moderately”; in test [1] (listed as SOR) it was “significant difference in AML burden only at d7 and d14”.

`CC(C)Cc1ccc([C@@H](C)C(=O)NCCOCCOCCNc2ccc(S(=O)(=O)NC(=O)c3ccc(N4CCN(CC5=C(c6ccc(Cl)cc6)CC(C)(C)CC5)CC4)cc3Oc3cnc4[nH]ccc4c3)cc2[N+](=O)[O-])cc1` [CG-3-005]: in test [2], the IC50 was < 20 nM.
